What was measured:
Type in all cases: in vivo
[1] = system: cotton aphid (Aphis gossypii); assay: cotton aphid control test on cucumber, spray; settings: 144 h, 20 mL sprayed, counted after 6 days (Test Example 20)
Method: Thirty (30) heads of cotton aphid (Aphis gossypii) (including adults and larvae) were released on the leaves of cucumber (cultivar: […]) grown in a polyethylene cup until the first true leaf was developed. Next day, 20 mL of the above test chemical solution was sprayed. […] Control value (%)={1-(Cb×Tai)/(Cai×Tb)}×100 wherein symbols in the equation represent the followings: Cb: Number of insects before spraying chemical solution in untreated area; Cai: Number of surviving insects in untreated area; Tb: Number of insects before spraying chemical solution in treated area; and Tai: Number of surviving insects in treated area.

[2] = system: tomato late blight fungus (Phytophthora infestans); settings: 500 ppm, sprayed 2 days before inoculation (Test Example 17)
[3] = system: common cutworm (Spodoptela litura); assay: common cutworm larvae mortality test, treated artificial diet; settings: 500 ppm, 2 mL on Insecta LF, third instar larvae, after 6 days (Test Example 25)
(Adoxophyes orana) = assay: Adoxophyes orana larvae mortality test, treated artificial diet; settings: 500 ppm, 1 mL on Silkmate 2S, first instar larvae, after 7 days (Test Example 26)
[4] = system: barley net blotch fungus (Pyrenophora teres); assay: barley net blotch control test, foliar spray before inoculation; settings: 3.1 ppm, sprayed 2 days before inoculation (Test Example 1, Comparative Example 1)

Q: With `Cc1cc(OCc2c(C)cccc2-n2nnn(C)c2=O)cc(-c2ccccc2)c1` [compound 143] as the compound, how does the pest or weed control at 500 ppm [1] read?
A: ≥ 90%

Q: How did the pest or weed control at 500 ppm [1] turn out when `COc1ccc(-c2cccc(OCc3c(C)cccc3-n3nnn(C)c3=O)c2)nn1` [compound 165, 1-{2-[3-(3-methoxypyridazin-6-yl)phenoxymethyl]-3-methylphenyl}-4-methyl-1,4-dihydrotetrazol-5-one] was run?
A: ≥ 90%

Q: How did the “area of lesion spots on the treated plant relative to that on an untreated plant” value [2] turn out when `COc1ccc(-c2cccc(OCc3c(C)cccc3-n3nnn(C)c3=O)c2)cn1` [compound 57] was run?
A: ≤ 30%

Q: For `Cc1ccc(OCc2c(C)cccc2-n2nnn(C)c2=O)cc1-c1ccc(Cl)cc1` [compound 122], which pest or weed control at 500 ppm [1] is on record?
A: ≥ 90%

Q: For `Cc1cccc(-n2nnn(C)c2=O)c1COc1cc(-c2ccccc2)ccc1Cl` [compound 128], which pest or weed control at 500 ppm [1] is on record?
A: ≥ 90%

Q: With `COc1cccc(-c2ccc(Cl)c(OCc3c(C)cccc3-n3nnn(C)c3=O)c2)c1` [compound 135] as the compound, how does the pest or weed control at 500 ppm [1] read?
A: ≥ 90%

Q: Which pest or weed control at 500 ppm [1] does the source give for `COc1ccc(-c2cccc(OCc3c(OC)cccc3-n3nnn(C)c3=O)c2)cc1` [compound 44] here?
A: ≥ 90%

Q: With `COc1ccccc1-c1cccc(OCc2c(C)cccc2-n2nnn(C)c2=O)c1` [compound 52] as the compound, how does the mortality [3] read?
A: 100%

Q: And the mortality ((Adoxophyes orana))?
A: 100%

Q: How did the pest or weed control at 500 ppm [1] turn out when `COc1ccc(-c2cc(OCc3c(C)cccc3-n3nnn(C)c3=O)ccc2OC)cn1` [compound 139] was run?
A: ≥ 90%

Q: For `COc1ccc(-c2cc(C)cc(OCc3c(C)cccc3-n3nnn(C)c3=O)c2)cc1` [compound 142], which pest or weed control at 500 ppm [1] is on record?
A: ≥ 90%

Q: How did the pest or weed control at 500 ppm [1] turn out when `Cc1cccc(-n2nnn(C)c2=O)c1COc1cccc(-c2ccc3ocnc3c2)c1` [compound 159] was run?
A: ≥ 90%

Q: `Cc1ccc(OCc2c(C)cccc2-n2nnn(C)c2=O)cc1-c1ccc(F)cc1` [compound 119] was tested. Which pest or weed control at 500 ppm [1] did it give?
A: ≥ 90%

Q: Which pest or weed control at 500 ppm [1] does the source give for `Cc1cccc(-n2nnn(C)c2=O)c1COc1cc(-c2ccc(Cl)cc2)ccc1F` [compound 134] here?
A: ≥ 90%

Q: How did the pest or weed control at 500 ppm [1] turn out when `COc1cccc(-c2cccc(OCc3c(C)cccc3-n3nnn(C)c3=O)c2F)c1` [compound 111] was run?
A: ≥ 90%

Q: How did the “area of lesion spots on the treated plant relative to that on an untreated plant” value [4] turn out when `Cn1nnn(-c2ccccc2COc2cccc(-c3ccccc3)n2)c1=O` [1-methyl-4-[2-(6-phenylpyridin-2-yloxymethyl)-phenyl]-1,4-dihydrotetrazol-5-one, reference compound] was run?
A: ≥ 70%

Q: How did the “area of lesion spots on the treated plant relative to that on an untreated plant” value [4] turn out when `Cc1cccc(-n2nnn(C)c2=O)c1COc1cccc(-c2ccccc2)n1` [compound 1, 1-methyl-4-[3-methyl-2-(6-phenylpyridin-2-yloxymethyl)phenyl]-1,4-dihydrotetrazol-5-one] was run?
A: ≤ 30%

From patent US9867372B2, “Tetrazolinone compound and use of same” (SUMITOMO CHEMICAL COMPANY, LIMITED, priority 2013, dated 2018)
